This passage reports Ki results from US20250114359A1, “METHODS FOR […] G[…]/OR HEXOKINASE” (UNIVERSITY OF SOUTH CAROLINA, priority 2023, published 2025).

In this assay the target is Trypanosoma cruzi glucokinase (TcGlcK) (Trypanosoma cruzi, UniProt Q4E4E1). The assay is described as follows: Determination of Ki values by type 1 and type 2 Dixon plots.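 Also: compounds supplied as 10 mM DMSO stocks (100 µL format), with a non-inhibitory compound run alongside for comparison.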 The format is biochemical.
Sequence of Trypanosoma cruzi glucokinase (TcGlcK) (Q4E4E1 1-376): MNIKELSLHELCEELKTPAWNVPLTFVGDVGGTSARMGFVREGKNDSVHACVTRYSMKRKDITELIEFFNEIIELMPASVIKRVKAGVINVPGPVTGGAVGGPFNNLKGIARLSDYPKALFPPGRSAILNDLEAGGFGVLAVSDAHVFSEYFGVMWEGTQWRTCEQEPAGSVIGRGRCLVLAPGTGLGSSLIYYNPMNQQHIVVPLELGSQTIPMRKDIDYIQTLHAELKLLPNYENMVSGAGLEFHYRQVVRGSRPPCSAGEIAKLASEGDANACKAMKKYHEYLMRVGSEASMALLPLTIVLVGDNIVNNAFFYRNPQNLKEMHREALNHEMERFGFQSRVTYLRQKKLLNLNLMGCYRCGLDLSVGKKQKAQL

Experimental: The inhibition constant can be determined by development of a Dixon plot (either type 1 or type 2) according to standard practice, and as utilized herein refers to the inhibitor concentration at which half maximum inhibition is determined for a 100 μL/10 mM format in DMSO.
Determination of the Ki values for inhibitors was performed by creation of both type 1 and type 2 Dixon plots. The format included 100 μL/10 mM in DMSO.

`Cc1cc2c(c(O)c1-c1c(C)cc3c(c1O)/C(=C/NCCO)C(=O)C(O)=C3C(C)C)/C(=C/NCCO)C(=O)C(O)=C2C(C)C` (atropisomer, axis not shown) [Inhibitor 13]: the Ki (in general, the equilibrium dissociation constant of an inhibitor or competing ligand from its target) came out at 422 µM.

Consider `Cc1cc2c(c(O)c1-c1c(C)cc3c(c1O)/C(=C/Nc1ccccc1O)C(=O)C(O)=C3C(C)C)/C(=C/Nc1ccccc1O)C(=O)C(O)=C2C(C)C` (atropisomer, axis not shown) [Inhibitor 14], for which the inhibitory constant (Ki) amounted to 468 µM. Consider `Cc1cc2c(c(O)c1-c1c(C)cc3c(c1O)/C(=C/Nc1ccccc1C(=O)O)C(=O)C(O)=C3C(C)C)/C(=C/Nc1ccccc1C(=O)O)C(=O)C(O)=C2C(C)C` (atropisomer, axis not shown) [Inhibitor 15], for which the Ki was 1.2 µM. The same measure for `Cc1cc(-c2ccc(N/C=C3\C(=O)C(O)=C(C(C)C)c4cc(C)c(-c5c(C)cc6c(c5O)/C(=C/Nc5ccc(-c7ccc(N)c(C)c7)cc5C)C(=O)C(O)=C6C(C)C)c(O)c43)c(C)c2)ccc1N` (atropisomer, axis not shown) [Inhibitor 17]: 532 µM. `Cc1cc2c(c(O)c1-c1c(C)cc3c(c1O)/C(=C/Nc1ccc(N=Nc4ccccc4)cc1)C(=O)C(O)=C3C(C)C)/C(=C/Nc1ccc(N=Nc3ccccc3)cc1)C(=O)C(O)=C2C(C)C` (atropisomer, axis not shown) [Inhibitor 18]: affinity was put at a Ki of 45.5 µM. The same measure for `CC(=O)c1ccc(N/C=C2\C(=O)C(O)=C(C(C)C)c3cc(C)c(-c4c(C)cc5c(c4O)/C(=C/Nc4ccc(C(C)=O)cc4)C(=O)C(O)=C5C(C)C)c(O)c32)cc1` (atropisomer, axis not shown) [Inhibitor 19]: 10.4 µM; for `COc1cc(NS(=O)(=O)c2ccc(N/C=C3\C(=O)C(O)=C(C(C)C)c4cc(C)c(-c5c(C)cc6c(c5O)/C(=C/Nc5ccc(S(=O)(=O)Nc7cc(OC)nc(OC)n7)cc5)C(=O)C(O)=C6C(C)C)c(O)c43)cc2)nc(OC)n1` (atropisomer, axis not shown) [Inhibitor 20]: 11.2 µM; for `Cc1cc2c(c(O)c1-c1c(C)cc3c(c1O)/C(=C/Nc1c(C)n(C)n(-c4ccccc4)c1=O)C(=O)C(O)=C3C(C)C)/C(=C/Nc1c(C)n(C)n(-c3ccccc3)c1=O)C(=O)C(O)=C2C(C)C` (atropisomer, axis not shown) [Inhibitor 21]: 9.5 µM. For the molecule `Cc1cc2c(c(O)c1-c1c(C)cc3c(c1O)/C(=C/Nc1ccc(S(=O)(=O)Nc4nccs4)cc1)C(=O)C(O)=C3C(C)C)/C(=C/Nc1ccc(S(=O)(=O)Nc3nccs3)cc1)C(=O)C(O)=C2C(C)C` (atropisomer, axis not shown) [Inhibitor 23], the Ki was found to be 32.3 µM.

As to `Cc1cc2c(c(O)c1-c1c(C)cc3c(c1O)/C(=C/Nc1ccc(S(N)(=O)=O)cc1)C(=O)C(O)=C3C(C)C)/C(=C/Nc1ccc(S(N)(=O)=O)cc1)C(=O)C(O)=C2C(C)C` (atropisomer, axis not shown) [Inhibitor 25], the Ki came to 74.3 µM. The same measure for `Cc1cc2c(c(O)c1-c1c(C)cc3c(c1O)/C(=C/NNC(=O)c1ccncc1)C(=O)C(O)=C3C(C)C)/C(=C/NNC(=O)c1ccncc1)C(=O)C(O)=C2C(C)C` (atropisomer, axis not shown) [Inhibitor 26]: 213 µM. For `Cc1cc2c(C(C)C)c(O)c(O)c(/C=N/n3c(=O)[nH][nH]c3=O)c2c(O)c1-c1c(C)cc2c(C(C)C)c(O)c(O)c(/C=N/n3c(=O)[nH][nH]c3=O)c2c1O` (atropisomer, axis not shown) [Inhibitor 33], the affinity corresponds to a Ki of 122 µM. The same measure for `Cc1cc2c(C(C)C)c(O)c(O)c(/C=N/NC(=O)c3ccoc3C)c2c(O)c1-c1c(C)cc2c(C(C)C)c(O)c(O)c(/C=N/NC(=O)c3ccoc3C)c2c1O` (atropisomer, axis not shown) [Inhibitor 39]: 9.16 µM; for `COc1ccc(OCC/N=C/c2c(O)c(O)c(C(C)C)c3cc(C)c(-c4c(C)cc5c(C(C)C)c(O)c(O)c(/C=N/CCOc6ccc(OC)cc6)c5c4O)c(O)c23)cc1` (atropisomer, axis not shown) [Inhibitor 40]: 29.4 µM; for `Cc1cc2c(C(C)C)c(O)c(O)c(/C=N/CCOc3ccc4c(c3)OCC4)c2c(O)c1-c1c(C)cc2c(C(C)C)c(O)c(O)c(/C=N/CCOc3ccc4c(c3)OCO4)c2c1O` (atropisomer, axis not shown) [Inhibitor 41]: 328 µM.

As for `CCCC(CCC)/N=C/c1c(O)c(O)c(C(C)C)c2cc(C)c(-c3c(C)cc4c(C(C)C)c(O)c(O)c(/C=N/C(CCC)CCC)c4c3O)c(O)c12` (atropisomer, axis not shown) [Inhibitor 46], the Ki was 99.1 µM. `COc1cc(/N=C/c2c(O)c(O)c(C(C)C)c3cc(C)c(-c4c(C)cc5c(C(C)C)c(O)c(O)c(/C=N/c6ccc(C)c(OC)c6)c5c4O)c(O)c23)ccc1C` (atropisomer, axis not shown) [Inhibitor 47] yielded a Ki of 29.1 µM. The same measure for `COc1c(C)cc(/N=C/c2c(O)c(O)c(C(C)C)c3cc(C)c(-c4c(C)cc5c(C(C)C)c(O)c(O)c(/C=N/c6cc(C)c(OC)c(C)c6)c5c4O)c(O)c23)cc1C` (atropisomer, axis not shown) [Inhibitor 49]: 16.1 µM; for `Cc1cc2c(C(C)C)c(O)c(O)c(/C=N/c3ccc4c(c3)CCN4S(C)(=O)=O)c2c(O)c1-c1c(C)cc2c(C(C)C)c(O)c(O)c(/C=N/c3ccc4c(c3)CCN4S(C)(=O)=O)c2c1O` (atropisomer, axis not shown) [Inhibitor 51]: 0.8 µM. Turning to `Cc1ccc(O)c(/N=C/c2c(O)c(O)c(C(C)C)c3cc(C)c(-c4c(C)cc5c(C(C)C)c(O)c(O)c(/C=N/c6cc(C)ccc6O)c5c4O)c(O)c23)c1` (atropisomer, axis not shown) [Inhibitor 54], the affinity corresponds to a Ki of 3.02 µM. The same measure for `COc1ccc(CC(=O)N/N=C/c2c(O)c(O)c(C(C)C)c3cc(C)c(-c4c(C)cc5c(C(C)C)c(O)c(O)c(/C=N/NC(=O)Cc6ccc(OC)c(OC)c6)c5c4O)c(O)c23)cc1OC` (atropisomer, axis not shown) [Inhibitor 55]: 41.6 µM; for `Cc1cc2c(C(C)C)c(O)c(O)c(/C=N/Nc3nnnn3-c3ccccc3)c2c(O)c1-c1c(C)cc2c(C(C)C)c(O)c(O)c(/C=N/Nc3nnnn3-c3ccccc3)c2c1O` (atropisomer, axis not shown) [Inhibitor 60]: 53.3 µM; for `Cc1cc2c(c(O)c1-c1c(C)cc3c(c1O)/C(=C/NCc1cccnc1)C(=O)C(O)=C3C(C)C)/C(=C/NCc1cccnc1)C(=O)C(O)=C2C(C)C` (atropisomer, axis not shown) [Inhibitor 74]: 123 µM. As for `Cc1cc2c(C(C)C)c(O)c(O)c(/C=N/CCOc3ccccc3F)c2c(O)c1-c1c(C)cc2c(C(C)C)c(O)c(O)c(/C=N/CCOc3ccccc3F)c2c1O` (atropisomer, axis not shown) [Inhibitor 76], the Ki is 105 µM.

`Cc1ccc(OCC/N=C/c2c(O)c(O)c(C(C)C)c3cc(C)c(-c4c(C)cc5c(C(C)C)c(O)c(O)c(/C=N/CCOc6ccc(C)cc6Br)c5c4O)c(O)c23)c(Br)c1` (atropisomer, axis not shown) [Inhibitor 77] returned an inhibition constant (Ki) of 42.3 µM. The same measure for `Cc1cc(OCC/N=C/c2c(O)c(O)c(C(C)C)c3cc(C)c(-c4c(C)cc5c(C(C)C)c(O)c(O)c(/C=N/CCOc6cc(C)c(Cl)c(C)c6Cl)c5c4O)c(O)c23)c(Cl)c(C)c1Cl` (atropisomer, axis not shown) [Inhibitor 79]: 127 µM; for `Cc1cc2c(C(C)C)c(O)c(O)c(/C=N/CCOc3ccc(C4CCCCC4)cc3)c2c(O)c1-c1c(C)cc2c(C(C)C)c(O)c(O)c(/C=N/CCOc3ccc(C4CCCCC4)cc3)c2c1O` (atropisomer, axis not shown) [Inhibitor 80]: 11.8 µM. The same measure for `Cc1cc2c(C(C)C)c(O)c(O)c(/C=N/CCOc3ccc4c(c3)CCC4)c2c(O)c1-c1c(C)cc2c(C(C)C)c(O)c(O)c(/C=N/CCOc3ccc4c(c3)CCC4)c2c1O` (atropisomer, axis not shown) [Inhibitor 82]: 98.9 µM; for `CCCSCC/N=C/c1c(O)c(O)c(C(C)C)c2cc(C)c(-c3c(C)cc4c(C(C)C)c(O)c(O)c(/C=N/CCSCC)c4c3O)c(O)c12` (atropisomer, axis not shown) [Inhibitor 83]: 84.5 µM. `Cc1cc2c(c(O)c1-c1c(C)cc3c(c1O)/C(=C/NCSN)C(=O)C(O)=C3C(C)C)/C(=C/NCSN)C(=O)C(O)=C2C(C)C` (atropisomer, axis not shown) [Inhibitor 85] displayed a Ki of 30.1 µM. The same measure for `Cc1cc2nc[nH]c2c(/N=C/c2c(O)c(O)c(C(C)C)c3cc(C)c(-c4c(C)cc5c(C(C)C)c(O)c(O)c(/C=N/c6c(C)c(C)cc7nc[nH]c67)c5c4O)c(O)c23)c1C` (atropisomer, axis not shown) [Inhibitor 86]: 2.58 µM; for `Cc1cc2c(C(C)C)c(O)c(O)c(/C=N/c3cccc(N4CCCC4=O)c3)c2c(O)c1-c1c(C)cc2c(C(C)C)c(O)c(O)c(/C=N/c3cccc(N4CCCC4=O)c3)c2c1O` (atropisomer, axis not shown) [Inhibitor 87]: 17.6 µM.

Take `Cc1cc(C)cc(OCC(=O)C/N=C/c2c(O)c(O)c(C(C)C)c3cc(C)c(-c4c(C)cc5c(C(C)C)c(O)c(O)c(/C=N/NC(=O)COc6cc(C)cc(C)c6)c5c4O)c(O)c23)c1` [Inhibitor 3]: the Ki is 60.4 µM. The same measure for `Cc1cc(C(=O)N/N=C/c2c(O)c(O)c(C(C)C)c3cc(C)c(-c4c(C)cc5c(C(C)C)c(O)c(O)c(/C=N/NC(=O)c6cc(C)[nH]n6)c5c4O)c(O)c23)n[nH]1` [Inhibitor 4]: 19.1 µM; for `Cc1cc2c(C(C)C)c(O)c(O)c(/C=N/NC(=O)C(C)C)c2c(O)c1-c1c(C)cc2c(C(C)C)c(O)c(O)c(/C=N/NC(=O)C(C)C)c2c1O` [Inhibitor 6]: 30.2 µM. The same measure for `Cc1cc2c(C(C)C)c(O)c(O)c(/C=N/Nc3nc4ccccc4[nH]c3=O)c2c(O)c1-c1c(C)cc2c(C(C)C)c(O)c(O)c(/C=N/Nc3nc4ccccc4[nH]c3=O)c2c1O` [Inhibitor 7]: 3.83 µM; for `Cc1cc2c(C(C)C)c(O)c(O)c(/C=N/NCc3ccccc3Cl)c2c(O)c1-c1c(C)cc2c(C(C)C)c(O)c(O)c(/C=N/NCc3ccccc3Cl)c2c1O` [Inhibitor 8]: 56.3 µM.

Turning to `Cc1cc2c(C(C)C)c(O)c(O)c(/C=N/Nc3cccc(Cl)n3)c2c(O)c1-c1c(C)cc2c(C(C)C)c(O)c(O)c(/C=N/Nc3cccc(Cl)n3)c2c1O` [Inhibitor 9], the Ki was found to be 11 µM.
